{"source": "patent US8658188B2", "about": "“Radio-opaque bioactive glass materials” (Universitat Zurich, priority 2009, dated 2014)", "assay": "Radiopacity assessment against an aluminum step wedge", "format": "physicochemical", "conditions": "paste in 0.9 wt % NaCl saline, 60% weight to volume, 1 mm thick, X-ray 65 kV, n=3", "from_the_text": "According to Waltimo et al., 2009, J Dent Res, 88, 235-8, the amount of bioactive particles per volume plays an important role in the closed environment of a root canal. To achieve a denser packing of the naturally relatively light nanomaterial (low-density powder with snow-like behaviour), uniaxial pressure of 2.6 MPa was applied for 30 seconds. […] The thus improved filler was compared to classical (flame derived) bioactive particles (no bismuth), to mechanical mixtures of bioactive particles and barium sulphate (50/wt %) and bismuth oxide (80/20 wt %; 50/50 wt %). Calcium hydroxide with or without additional barium sulphate was used as commercially available control material. Bovine dentine slices with a thickness of 1 mm served as control for the clear distinction between material and the surrounding tissue in clinical situations. Prior to use, the corresponding powder was homogeneously mixed with unbuffered physiological saline (0.9 wt % NaCl) to obtain a final weight to volume ratio of 60% (plastic limit, i.e. the maximum amount of powder per liquid to yield a paste-like suspension). A radiograph was taken after preparing the paste and placing it in a polycarbonate mould (10 mm diameter, 1 mm thick). Specimens were placed on a radio-graphic film (Digora, Finland) together with an aluminum step-wedge with a variable thickness from 0.5 mm to 6 mm (0.5 mm and 1 mm increments). […]"}
{"smiles": "[Ca+2].[OH-].[OH-]", "note": "[calcium hydroxide, Calcium hydroxide]", "values": [{"measurement": "aluminum equivalent (radiopacity)", "value": 0.6, "unit": "mm"}]}
